Assay results taken from ChEMBL document CHEMBL3232945 (Eur J Med Chem, 2014).

Legend:
Rattus norvegicus [1] = assay: Toxicity in anaesthetized-Wistar rat assessed as QRS ECG interval at 40 mg/kg, ip measured immediately at 0 min (reference value: 19.6 +/- 1.142 ms); type: organism-based; design: dose 40 mg/kg, route intraperitoneal; conditions: in vivo, 0 h
Rattus norvegicus [2] = assay: Toxicity in anesthetized-normotensive Wistar rat assessed as heart rate at 40 mg/kg, ip after 45 mins (reference value: 316.82 +/- 8.452 bpm); type: organism-based; design: dose 40 mg/kg, route intraperitoneal; conditions: in vivo, 0.75 h
Rattus norvegicus [3] = assay: Toxicity in anaesthetized-Wistar rat assessed as Q-T ECG interval at 40 mg/kg, ip after 30 mins (reference value: 78.3 +/- 0.860 ms); type: organism-based; design: dose 40 mg/kg, route intraperitoneal; conditions: in vivo, 0.5 h
Rattus norvegicus [4] = assay: Toxicity in anaesthetized-Wistar rat assessed as P-Q ECG interval at 40 mg/kg, ip after 15 mins (reference value: 52.2 +/- 1.158 ms); type: organism-based; design: dose 40 mg/kg, route intraperitoneal; conditions: in vivo, 0.25 h
Rattus norvegicus [5] = assay: Toxicity in anesthetized-normotensive Wistar rat assessed as heart rate at 40 mg/kg, ip measured immediately at 0 min (reference value: 316.62 +/- 9.643 bpm); type: organism-based; design: dose 40 mg/kg, route intraperitoneal; conditions: in vivo, 0 h
Rattus norvegicus [6] = assay: Toxicity in anaesthetized-Wistar rat assessed as P-Q ECG interval at 40 mg/kg, ip measured immediately at 0 min (reference value: 52.4 +/- 0.927 ms); type: organism-based; design: dose 40 mg/kg, route intraperitoneal; conditions: in vivo, 0 h
Rattus norvegicus [7] = assay: Toxicity in anaesthetized-Wistar rat assessed as QRS ECG interval at 40 mg/kg, ip after 30 mins (reference value: 19.9 +/- 1.393 ms); type: organism-based; design: dose 40 mg/kg, route intraperitoneal; conditions: in vivo, 0.5 h
Rattus norvegicus [8] = assay: Toxicity in anaesthetized-Wistar rat assessed as Q-T ECG interval at 40 mg/kg, ip after 15 mins (reference value: 79.4 +/- 1.270 ms); type: organism-based; design: dose 40 mg/kg, route intraperitoneal; conditions: in vivo, 0.25 h
Rattus norvegicus [9] = assay: Antiarrhythmic activity in barium chloride-induced Wistar rat assessed as increase in appearance time of arrhythmia at 40 mg/kg, ip administered 60 mins before barium chloride challenge (reference value: 129.4 +/- 4.373 sec); type: functional, Heart; conditions: route intraperitoneal
Rattus norvegicus [10] = assay: Antihypertensive activity in Wistar rat assessed as mean arterial pressure at 40 mg/kg, ip after 45 mins (reference value: 193.96 +/- 0.865 mmHg); type: functional, Artery; conditions: route intraperitoneal
Rattus norvegicus [11] = assay: Toxicity in anaesthetized-Wistar rat assessed as P-Q ECG interval at 40 mg/kg, ip after 60 mins (reference value: […] +/- 0.924 ms); type: organism-based; design: dose 40 mg/kg, route intraperitoneal; conditions: in vivo, 1 h
Rattus norvegicus [12] = assay: Toxicity in anaesthetized-Wistar rat assessed as P-Q ECG interval at 40 mg/kg, ip after 45 mins (reference value: 52.5 +/- 0.780 ms); type: organism-based; design: dose 40 mg/kg, route intraperitoneal; conditions: in vivo, 0.75 h
Rattus norvegicus [13] = assay: Toxicity in […] normotensive Wistar rat assessed as mean arterial pressure at 40 mg/kg, ip measured immediately at 0 min (reference value: 94.21 +/- 2.065 mmHg); type: organism-based, Artery; design: dose 40 mg/kg, route intraperitoneal; conditions: in vivo, 0 h
Rattus norvegicus [14] = assay: Toxicity in […] normotensive Wistar rat assessed as mean arterial pressure at 40 mg/kg, ip after 45 mins (reference value: 94.83 +/- 0.943 mmHg); type: organism-based, Artery; design: dose 40 mg/kg, route intraperitoneal; conditions: in vivo, 0.75 h
Rattus norvegicus [15] = assay: Antihypertensive activity in Wistar rat assessed as mean arterial pressure at 40 mg/kg, ip after 60 mins (reference value: 195.11 +/- 0.531 mmHg); type: functional, Artery; conditions: route intraperitoneal
Rattus norvegicus [16] = assay: Toxicity in anaesthetized-Wistar rat assessed as QRS ECG interval at 40 mg/kg, ip after 15 mins (reference value: 18.9 +/- 1.563 ms); type: organism-based; design: dose 40 mg/kg, route intraperitoneal; conditions: in vivo, 0.25 h
Rattus norvegicus [17] = assay: Toxicity in anesthetized-normotensive Wistar rat assessed as heart rate at 40 mg/kg, ip after 30 mins (reference value: 317.68 +/- 7.631 bpm); type: organism-based; design: dose 40 mg/kg, route intraperitoneal; conditions: in vivo, 0.5 h
Rattus norvegicus [18] = assay: Toxicity in anesthetized-normotensive Wistar rat assessed as heart rate at 40 mg/kg, ip after 15 mins (reference value: 313.93 +/- 9.912 bpm); type: organism-based; design: dose 40 mg/kg, route intraperitoneal; conditions: in vivo, 0.25 h
Rattus norvegicus [19] = assay: Toxicity in anaesthetized-Wistar rat assessed as QRS ECG interval at 40 mg/kg, ip after 60 mins (reference value: 19.3 +/- 0.873 ms); type: organism-based; design: dose 40 mg/kg, route intraperitoneal; conditions: in vivo, 1 h
Rattus norvegicus [20] = assay: Toxicity in anaesthetized-Wistar rat assessed as P-Q ECG interval at 40 mg/kg, ip after 30 mins (reference value: […] +/- 0.927 ms); type: organism-based; design: dose 40 mg/kg, route intraperitoneal; conditions: in vivo, 0.5 h
Rattus norvegicus [21] = assay: Antihypertensive activity in Wistar rat assessed as mean arterial pressure at 40 mg/kg, ip measured immediately at 0 min (reference value: 194.08 +/- 1.962 mmHg); type: functional, Artery; conditions: route intraperitoneal
Rattus norvegicus [22] = assay: Antiarrhythmic activity in barium chloride-induced Wistar rat assessed as increase in mortality time at 40 mg/kg, ip administered 60 mins before barium chloride challenge (reference value: 682.8 +/- 9.656 secs); type: functional, Heart; conditions: route intraperitoneal
Rattus norvegicus [23] = assay: Toxicity in anaesthetized-Wistar rat assessed as Q-T ECG interval at 40 mg/kg, ip after 60 mins (reference value: 79.7 +/- 0.965 ms); type: organism-based; design: dose 40 mg/kg, route intraperitoneal; conditions: in vivo, 1 h
Rattus norvegicus [24] = assay: Toxicity in anaesthetized-Wistar rat assessed as QRS ECG interval at 40 mg/kg, ip after 45 mins (reference value: 20.2 +/- 1.348 ms); type: organism-based; design: dose 40 mg/kg, route intraperitoneal; conditions: in vivo, 0.75 h
Rattus norvegicus [25] = assay: Toxicity in […] normotensive Wistar rat assessed as mean arterial pressure at 40 mg/kg, ip after 30 mins (reference value: 94.68 +/- 1.213 mmHg); type: organism-based, Artery; design: dose 40 mg/kg, route intraperitoneal; conditions: in vivo, 0.5 h
Rattus norvegicus [26] = assay: Toxicity in anaesthetized-Wistar rat assessed as Q-T ECG interval at 40 mg/kg, ip measured immediately at 0 min (reference value: 78.8 +/- 1.030 ms); type: organism-based; design: dose 40 mg/kg, route intraperitoneal; conditions: in vivo, 0 h
Rattus norvegicus [27] = assay: Antihypertensive activity in Wistar rat assessed as mean arterial pressure at 40 mg/kg, ip after 15 mins (reference value: 195.68 +/- 1.623 mmHg); type: functional, Artery; conditions: route intraperitoneal
Rattus norvegicus [28] = assay: Antihypertensive activity in Wistar rat assessed as mean arterial pressure at 40 mg/kg, ip after 30 mins (reference value: 194.72 +/- 1.002 mmHg); type: functional, Artery; conditions: route intraperitoneal
Rattus norvegicus [29] = assay: Toxicity in […] normotensive Wistar rat assessed as mean arterial pressure at 40 mg/kg, ip after 60 mins (reference value: 95.07 +/- 1.973 mmHg); type: organism-based, Artery; design: dose 40 mg/kg, route intraperitoneal; conditions: in vivo, 1 h
Rattus norvegicus [30] = assay: Toxicity in […] normotensive Wistar rat assessed as mean arterial pressure at 40 mg/kg, ip after 15 mins (reference value: 93.81 +/- 1.543 mmHg); type: organism-based, Artery; design: dose 40 mg/kg, route intraperitoneal; conditions: in vivo, 0.25 h
Rattus norvegicus [31] = assay: Toxicity in anesthetized-normotensive Wistar rat assessed as heart rate at 40 mg/kg, ip after 60 mins (reference value: 314.96 +/- 9.442 bpm); type: organism-based; design: dose 40 mg/kg, route intraperitoneal; conditions: in vivo, 1 h

| SMILES | Activity (Rattus norvegicus [1]) [min] | Activity (Rattus norvegicus [2]) [bpm] | Activity (Rattus norvegicus [3]) [min] | Activity (Rattus norvegicus [4]) [min] | Activity (Rattus norvegicus [5]) [bpm] | Activity (Rattus norvegicus [6]) [ms] | Activity (Rattus norvegicus [7]) [ms] | Activity (Rattus norvegicus [8]) [min] | Time (Rattus norvegicus [9]) [s] | Activity (Rattus norvegicus [10]) [mmHg] | Activity (Rattus norvegicus [11]) [min] | Activity (Rattus norvegicus [12]) [min] | Activity (Rattus norvegicus [13]) [mmHg] | Activity (Rattus norvegicus [14]) [mmHg] | Activity (Rattus norvegicus [15]) [mmHg] | Activity (Rattus norvegicus [16]) [min] | Activity (Rattus norvegicus [17]) [bpm] | Activity (Rattus norvegicus [18]) [bpm] | Activity (Rattus norvegicus [19]) [min] | Activity (Rattus norvegicus [20]) [min] | other results |
| --- | --- | --- | --- | --- | --- | --- | --- | --- | --- | --- | --- | --- | --- | --- | --- | --- | --- | --- | --- | --- | --- |
| CN1CCN(CC(O)CN2C(=O)/C(=C\c3ccccc3)S/C2=N\c2ccccc2)CC1 (stereo not drawn) | 22.4 | 283.56 | 75.2 | 53.2 | 305.65 | 53 | 23.2 | 74.8 | 349.7 | 134.44 | 55.6 | 54.9 | 91.93 | 64.51 | 162.19 | 22.6 | 256.32 | 290.24 | 24 | 54.4 | Activity (Rattus norvegicus [21]): 196.43 mmHg; Time (Rattus norvegicus [22]): 1276 s; Activity (Rattus norvegicus [23]): 75.6 ms; Activity (Rattus norvegicus [24]): 23.6 min; Activity (Rattus norvegicus [25]): 63.43 mmHg; Activity (Rattus norvegicus [26]): 74.5 min; Activity (Rattus norvegicus [27]): 182.76 mmHg; Activity (Rattus norvegicus [28]): 157.99 mmHg; Activity (Rattus norvegicus [29]): 74.63 mmHg; Activity (Rattus norvegicus [30]): 79.37 mmHg; Activity (Rattus norvegicus [31]): 302.28 bpm |
| O=C1/C(=C\c2ccccc2)S/C(=N\c2ccccc2)N1CC(O)CN1CCN(Cc2ccccc2)CC1 (stereo not drawn) | 23.4 | 298.21 | 73.2 | 50.4 | 333.62 | 49.8 | 23.8 | 74.9 | 296.9 | 166.41 | 52.7 | 51.3 | 95.09 | 72.57 | 179.51 | 23.2 | 283.52 | 312.34 | 23.7 | 50.9 | Activity (Rattus norvegicus [21]): 194.51 mmHg; Time (Rattus norvegicus [22]): 986.7 s; Activity (Rattus norvegicus [23]): 74.2 ms; Activity (Rattus norvegicus [24]): 23.1 min; Activity (Rattus norvegicus [25]): 78.19 mmHg; Activity (Rattus norvegicus [26]): 74.3 min; Activity (Rattus norvegicus [27]): 179.02 mmHg; Activity (Rattus norvegicus [28]): 160.63 mmHg; Activity (Rattus norvegicus [29]): 85.44 mmHg; Activity (Rattus norvegicus [30]): 92.1 mmHg; Activity (Rattus norvegicus [31]): 312.21 bpm |
| O=C1/C(=C\c2ccccc2)S/C(=N\c2ccccc2)N1CC(O)CN1CCCCC1 (stereo not drawn) | 20.2 | 274.15 | 73.3 | 51.7 | 308.43 | 52.2 | 21.9 | 72.9 | 279.3 | 145.87 | 51.5 | 50.6 | 94.65 | 64.69 | 166.84 | 21.5 | 268.74 | 297.54 | 22.6 | 51.9 | Activity (Rattus norvegicus [21]): 194.76 mmHg; Time (Rattus norvegicus [22]): 886.9 s; Activity (Rattus norvegicus [23]): 71.8 ms; Activity (Rattus norvegicus [24]): 22.8 min; Activity (Rattus norvegicus [25]): 72.76 mmHg; Activity (Rattus norvegicus [26]): 72.7 min; Activity (Rattus norvegicus [27]): 165.33 mmHg; Activity (Rattus norvegicus [28]): 134.16 mmHg; Activity (Rattus norvegicus [29]): 76.12 mmHg; Activity (Rattus norvegicus [30]): 82.63 mmHg; Activity (Rattus norvegicus [31]): 303.32 bpm |
